Assay [1] can be described thus: Jurkat T cell cytotoxicity, dose response, cytotoxicity control for P. falciparum gametocyte viability project, luminescence (AID 1117277).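 Note: potency reflects loss of cellular ATP meaning fewer viable cells.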 The class given is functional, cell-based.
Assay [2] can be described thus: P. falciparum late gametocyte killing, dose response, luminescence (AID 1117278).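 Note: gametocytes exposed to compound for 24 hours.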 The class given is functional, cell-based.
A short description of assay [3]: Glucagon-like peptide 1 release potency, NCI-H716 cell line, dose-response, half-maximal inhibitory concentration (AID 1117344). The class given is functional, cell-based.
Assay [4] is described as follows: half-maximal inhibitory concentration for glucagon-like peptide-1 release, STC-1 cell line, dose-response (AID 1117345). The class given is functional, cell-based.
Assay [5] is described as follows: A549 cell cytotoxicity, dose response, cytotoxicity control, 24 h, CellTiter-Glo luminescence, cherry-picks (AID 1053115). Conditions: A549, 24 h. The class given is functional, cell-based.
A further assay deals with Vasopressin V1b receptor (Homo sapiens, UniProt P47901). Put plainly: Late-stage results from the probe development effort to identify antagonists of arginine vasopressin receptor 1a (AVPR1a): fluorescence-based cell-based dose response AVPR1b inhibition counterscreen assay. The class given is functional.
Sequence of Vasopressin V1b receptor (P47901 whole entry): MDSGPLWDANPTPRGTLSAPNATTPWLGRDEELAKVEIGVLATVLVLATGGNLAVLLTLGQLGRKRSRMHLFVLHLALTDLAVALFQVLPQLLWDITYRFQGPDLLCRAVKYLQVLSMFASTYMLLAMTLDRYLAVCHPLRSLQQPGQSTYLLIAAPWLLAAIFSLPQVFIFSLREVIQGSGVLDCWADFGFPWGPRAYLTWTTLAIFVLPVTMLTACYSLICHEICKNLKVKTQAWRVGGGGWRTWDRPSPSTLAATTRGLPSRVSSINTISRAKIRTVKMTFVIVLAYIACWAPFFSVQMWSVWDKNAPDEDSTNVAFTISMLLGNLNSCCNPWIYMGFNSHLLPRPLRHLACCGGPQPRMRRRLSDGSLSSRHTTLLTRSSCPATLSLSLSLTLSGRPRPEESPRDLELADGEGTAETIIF
Assay [6] is described as follows: Late-stage results from the probe development effort to identify antagonists of arginine vasopressin receptor 1a (AVPR1a): fluorescence-based cell-based dose response OXTR inhibition counterscreen assay. The class given is functional. In general terms: A counterscreen serves to expose hits that act by an unwanted route or on another target.
The nature of assay [7]: Late-stage results from the probe development effort to identify antagonists of arginine vasopressin receptor 1a (AVPR1a): fluorescence-based cell-based dose response AVPR1a inhibition assay. The class given is functional.
In a further assay the target is Vasopressin V2 receptor (Homo sapiens, UniProt P30518). Put plainly: Late-stage results from the probe development effort to identify antagonists of arginine vasopressin receptor 1a (AVPR1a): fluorescence-based cell-based dose response AVPR2 inhibition counterscreen assay. The class given is functional.
Sequence of Vasopressin V2 receptor (P30518 whole entry): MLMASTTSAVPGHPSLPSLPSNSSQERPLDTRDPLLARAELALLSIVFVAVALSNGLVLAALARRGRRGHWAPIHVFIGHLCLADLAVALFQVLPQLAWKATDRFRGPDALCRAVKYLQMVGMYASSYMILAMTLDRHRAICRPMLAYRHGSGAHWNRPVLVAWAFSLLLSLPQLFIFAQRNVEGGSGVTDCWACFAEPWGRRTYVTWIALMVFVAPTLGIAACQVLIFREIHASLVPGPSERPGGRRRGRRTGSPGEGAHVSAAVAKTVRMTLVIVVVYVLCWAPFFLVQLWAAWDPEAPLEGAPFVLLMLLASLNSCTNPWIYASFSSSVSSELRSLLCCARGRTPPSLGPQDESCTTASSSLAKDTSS
The nature of assay [8]: P. falciparum Dd2 growth inhibitors, dose response, SYBR Green, dry powder samples, set 9 (AID 1159568). The class given is functional, cell-based.
Assay [9] is described as follows: Late stage counterscreen for inhibitors of Trypanosoma brucei methionyl tRNA synthetase (MetRS): Luminescence-based cell-based high throughput dose response assay to identify compounds that are cytotoxic to Jurkat human T lymphocyte cells. The class given is functional.
The nature of assay [10]: RKO cell viability reduction, dose response, CellTiter-Glo luminescence (AID 1117322). The class given is functional.
Assay [11] can be described thus: CellTiter-Glo luminescent dose response of DLD-1 viability loss (AID 1117352). The class given is functional. For orientation: In ATP-based viability assays light output follows the ATP content of the culture.
The nature of assay [12]: cytotoxicity toward HCT116 cells – cell-based, CellTiter-Glo luminescence, IC50, dose response (AID 1117332). The class given is functional. As to conditions: HCT-116.
A short description of assay [13]: cytotoxicity toward HT-29 cells – cell-based, CellTiter-Glo luminescence, IC50, dose response (AID 1117330). The class given is functional.
Assay [14] can be described thus: cytotoxicity toward Colo320 cells – cell-based, CellTiter-Glo luminescence, IC50, dose response (AID 1117334). The class given is functional. As to conditions: COLO 320.
A short description of assay [15]: SNU-C1 cell viability reduction, dose response, CellTiter-Glo luminescence (AID 1117323). The class given is functional, cell-based.
The nature of assay [16]: HCT116 cell viability decrease, GSK3B pretreatment – CellTiter-Glo, IC50, dose response (AID 1117339). The class given is functional. As to conditions: HCT-116.
Assay [17] can be described thus: Concentration-dependent survival of SW480 colon cancer line, luminescence detection with CellTiter-Glo, half-maximal inhibitory concentration (AID 1117338). The class given is functional.
Assay [18] is described as follows: Artemis endonuclease inhibitor potency, dose response, biochemical, fluorescence intensity (AID 720701).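 Note: Artemis endonuclease enzyme.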 The class given is functional.
Assay [19] can be described thus: P. falciparum Dd2 growth inhibitors, dose response, SYBR Green, cherry-picked samples (AID 1159567). The class given is functional, cell-based.
The nature of assay [20]: P. falciparum Dd2 growth inhibitors, dose response, SYBR Green, dry powder samples (AID 1159566).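 Note: potency for growth inhibition with lower SYBR green DNA signal.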 The class given is functional, cell-based.
The nature of assay [21]: P. falciparum 3D7-ScDHODH growth inhibitors, dose response, SYBR Green, dry powder samples (AID 1159570).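 Note: parasite growth measured after 72 hours of compound exposure.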 The class given is functional, cell-based.
A short description of assay [22]: HepG2 cell cytotoxicity, dose response, cytotoxicity control, plate reader, dry powder samples (AID 1159569).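 Note: inhibitor potency with signal falling toward the positive control level.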 The class given is functional, cell-based.
The nature of assay [23]: P. falciparum ATP4 D1247Y mutant growth inhibitors, dose response, NITD609-resistant line, SYBR Green, dry powder (AID 1159571).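 Note: parasites synchronized at ring stage by sorbitol before testing.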 The class given is functional, cell-based.
A short description of assay [24]: HepG2 cell cytotoxicity, dose response, cytotoxicity control, cherry-picked samples (AID 1159577). The class given is functional, cell-based.
A further assay has as its target Protein Tat (Human immunodeficiency virus type 1 group M subtype B (isolate HXB2)(HIV-1), UniProt P04608). The class given is functional.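 Note: tat binding to TAR RNA read out by fluorescence polarization.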
For assay [25], the target named is DNA dC->dU-editing enzyme APOBEC-3G (Homo sapiens, UniProt Q9HC16). The class given is functional.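 Note: Dose-response counterscreen measuring inhibition of APOBEC3G DNA deaminase activity, run while confirming APOBEC3A inhibitors.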
Sequence of DNA dC->dU-editing enzyme APOBEC-3G (Q9HC16 whole entry, the tested form may be a part): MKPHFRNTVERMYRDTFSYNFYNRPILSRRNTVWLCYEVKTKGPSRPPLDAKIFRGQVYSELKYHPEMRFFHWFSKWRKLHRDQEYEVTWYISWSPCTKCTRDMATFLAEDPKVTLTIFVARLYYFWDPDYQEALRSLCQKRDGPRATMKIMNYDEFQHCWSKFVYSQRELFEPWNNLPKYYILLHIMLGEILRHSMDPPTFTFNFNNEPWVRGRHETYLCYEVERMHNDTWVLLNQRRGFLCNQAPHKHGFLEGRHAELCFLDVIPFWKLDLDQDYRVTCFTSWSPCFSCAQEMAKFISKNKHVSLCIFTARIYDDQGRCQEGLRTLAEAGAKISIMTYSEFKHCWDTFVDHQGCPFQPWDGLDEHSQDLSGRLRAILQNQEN
The target in assay [26] is T1, Carboxy-terminal domain RNA polymerase II polypeptide A small phosphatase 1 (Homo sapiens, UniProt Q9GZU7).
T1 sequence (Q9GZU7 whole entry): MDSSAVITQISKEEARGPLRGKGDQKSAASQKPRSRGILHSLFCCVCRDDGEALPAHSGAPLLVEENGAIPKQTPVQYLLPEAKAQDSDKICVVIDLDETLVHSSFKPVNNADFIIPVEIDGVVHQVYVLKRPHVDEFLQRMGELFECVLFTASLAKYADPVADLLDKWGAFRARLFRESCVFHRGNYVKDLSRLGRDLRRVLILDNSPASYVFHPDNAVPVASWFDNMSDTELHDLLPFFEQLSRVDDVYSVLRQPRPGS
Description: inhibitors of CTDSP1, concentration-response testing, biochemical assay, absorbance-based, actives from ultra-high-throughput screening (AID 540297). The class given is functional.

The target in assay [27] is DNA dC->dU-editing enzyme APOBEC-3A (Homo sapiens, UniProt P31941). Put plainly: Dose Response confirmation of small molecule APOBEC3A DNA Deaminase Inhibitors via a fluorescence-based single-stranded DNA deaminase assay. [Related pubchem assays (depositor defined):AID493011, AID493024]. The class given is functional.
Sequence of DNA dC->dU-editing enzyme APOBEC-3A (P31941 whole entry): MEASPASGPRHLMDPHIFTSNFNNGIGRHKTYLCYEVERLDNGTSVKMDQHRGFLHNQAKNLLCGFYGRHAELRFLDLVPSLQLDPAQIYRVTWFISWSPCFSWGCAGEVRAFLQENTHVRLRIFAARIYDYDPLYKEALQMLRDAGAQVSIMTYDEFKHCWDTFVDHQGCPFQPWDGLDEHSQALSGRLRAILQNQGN
A short description of assay [28]: inhibitors of intracellular T. cruzi replication, confirmation, NIH3T3 host cells, beta-gal luminescence (AID 2044).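 Note: intracellular parasites grown in NIH/3T3 mouse fibroblasts as host cells; luminescent beta-galactosidase reporter signal from transgenic T. cruzi replicating inside host cells; inhibitors lower the luminescence signal.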 The class given is functional, cell-based.
A short description of assay [29]: cytotoxicity toward NIH3T3 fibroblasts, dose response, counter-screen, cell-based, ATP luminescence, mouse fibroblasts (AID 2010).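 Note: cells exposed to compound for about 90 hours before reading.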 The class given is functional.
Assay [30] is described as follows: THP-1 cell cytotoxicity, dose response, cytotoxicity control for Vif-APOBEC3G degradation inhibitor project, THP-1 cells (AID 1117359). The class given is functional. As to conditions: Human immunodeficiency virus 1, THP-1.

These results are taken from ChEMBL document CHEMBL1201862, “PubChem BioAssay data set” (2004).

Structures are written as SMILES. The source made the active and inactive calls.

Sequence of Protein Tat (P04608 whole entry): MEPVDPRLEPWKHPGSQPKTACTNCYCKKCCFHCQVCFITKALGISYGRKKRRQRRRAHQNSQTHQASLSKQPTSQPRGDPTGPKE

For `COc1ccc(CCN(C)CCCN2CC(c3ccccc3)CC2=O)cc1OC` (stereo unspecified), the IC50 in [1] was > 83.3 µM (inactive); in assay [2], > 109 µM (inactive).

Consider `Cc1nnc2n1-c1sc(CCc3ccc(CC(C)C)cc3)cc1C(c1ccccc1Cl)=NC2C` (stereo unspecified) [ISRAPAFANT], for which the IC50 was 24.7 µM (inactive) in assay [3] and > 40 µM (inactive) in assay [4].

Consider `C[C@@H](O)C#Cc1ccc2c(c1)O[C@@H](CN(C)Cc1ccccc1)[C@@H](C)CN([C@@H](C)CO)S2(=O)=O`, for which the AC50 in assay [5] is > 60 µM (inactive).

`Cc1cccc(N2CCC(C(=O)N(CC3CC3)c3ccc(Cl)cc3)CC2)n1`: the IC50 was 17.6 µM (inactive) on Vasopressin V1b receptor, 5.1 µM (active) in assay [6], 0.0248 µM (active) in [7] and 6.1 µM (active) on Vasopressin V2 receptor.

`O=C(NCC[C@H]1CC[C@H](NC(=O)c2ccccc2F)[C@@H](CO)O1)c1cnccn1`: the AC50 in [8] is 11 µM (active).

For the compound `Cc1nc2nc(C)c(CCC(=O)NC3CCCCC3)c(C)n2n1`, the IC50 was > 83.4 µM (inactive) in assay [1] and > 109 µM (inactive) in [2].

As for `O=C(CC=NOCc1ccc([N+](=O)[O-])cc1)Nc1ccc(Cl)cc1`, the IC50 in assay [9] was > 83.3 µM (inactive).

Consider `Cc1cccc(Nc2cc(Cl)nc(SCC(=O)O)n2)c1C` [PIRINIXIC ACID], for which the IC50 in assay [10], in [11], in assay [12], in [13], in [14] and in [15] was > 20 µM (inactive) each time. The IC50 in assay [16] and in assay [17] was > 20 µM (inactive) throughout.

`O=C(NC(C(=O)N/N=C/c1c2ccccc2cc2ccccc12)c1nnc(O)c2ccccc12)c1ccccc1` (stereo unspecified): the IC50 in assay [18] was > 20 µM (inactive).

For `COc1ccc(C#Cc2ccc([C@@H]3[C@@H](CO)N4CCCCN(C(=O)Nc5cccc(F)c5)C[C@H]34)cc2)cc1`, the AC50 in [19] is 1.66 µM (active); in [20], 0.083 µM (active); in [21], 0.738 µM (active); in assay [22] it was 7.51 µM (active); in assay [23] it was 0.698 µM (active); in assay [8], 1.35 µM (active).

For the compound `COc1ccc(C#Cc2ccc([C@@H]3[C@H](CO)N4CCCCN(C(=O)Nc5ccccc5F)C[C@@H]34)cc2)cc1`, the AC50 is 9.73 µM (active) in [24]; 1.42 µM (active) in assay [19]; 0.898 µM (active) in assay [20]; 1.02 µM (active) in assay [21]; 8.16 µM (active) in [22]; 0.771 µM (active) in assay [23].

As for `CCOC(=O)C1=C(COC(=O)/C=C/c2ccco2)NC(=O)NC1C` (stereo unspecified), the IC50 on Protein Tat is > 100 µM (active); in assay [25] it was 28.4 µM (active); in assay [26], 4.25 µM (active); in [27] it was 15.9 µM (active).

For `N#Cc1ccc(-c2ccc3c(c2)[C@H]2[C@H](CCN2C(=O)C2CCCCC2)[C@@H](CO)N3)cc1`, the AC50 in [5] was 48.7 µM (active).

For `O=C(N1CCC2(CC1)OCc1ccccc12)N(CC1CC1)c1ccccc1`, the IC50 on Vasopressin V1b receptor is 25.1 µM (inactive); in assay [6], 20 µM (inactive); in [7], 0.466 µM (active); at Vasopressin V2 receptor it was 20 µM (inactive).

As to `COc1cccc(/C=N/NC(N)=S)c1OCc1ccccc1Cl`, the EC50 was 1.18 µM (active) in assay [28] and > 30 µM (not active) in assay [29]. Further, in [30], the 50% cytotoxic concentration (CC50) was > 40 µM (active).

As usually defined, the IC50 is the point on the concentration scale where inhibition reaches its midpoint. The term AC50 denotes the concentration at which the activity in the assay is half-maximal. Broadly, the EC50 is the concentration needed to bring the measured effect to its halfway point. For orientation: CC50 means the concentration giving 50% cytotoxicity.
